Experimental data: patent US20250326757A1, “SOLID FORMS OF HETEROCYCLYLAMIDES AS IRAK4 INHIBITORS” (AstraZeneca AB, priority 2022, published 2025)

Assays:
[1] = format: physicochemical
Description: Amorphous Compound (I) (20 mg) was suspended in 2-propanol (800 μL) and stirred at room temperature for 2 weeks. The resultant solid was collected by filtration.

[2] = format: physicochemical; conditions: 70° C., low (11%) and high (75%) relative humidity, 21 days
Description: The physical and chemical stability of N-(Imidazo[1,2-b]pyridazin-3-yl)-6-methoxy-2-((1r,4r)-4-(N-methylacetamido)cyclohexyl)-2H-indazole-5-carboxamide Form A was further assessed under stressed conditions (elevated temperature (70° C.) at low (11%) and high (75%) relative humidity) over a period of 21 days according to standard protocols. Briefly, samples of Form A material were weighed into sample vials, the sample vials were placed in separate jars each containing a MadgeTech temperature and humidity logger and, in a separate vial, a saturated solution of either lithium chloride (to give 11% relative humidity) or sodium chloride (to give 75% relative humidity). The two jars (low/high humidity) were then sealed and placed in a calibrated oven at a temperature of 70° C. for a period of 21 days. Control samples were maintained in sealed vials in a refrigerator for the duration of the study.
Furthermore, XRPD confirmed that the physical form of the material over the course of the study was unchanged. It could thus be concluded that no chemical degradation of the samples or change in their physical form occurred on storage under stressed conditions. Accordingly, the suitability of N-(Imidazo[1,2-b]pyridazin-3-yl)-6-methoxy-2-((1r,4r)-4-(N-methylacetamido)cyclohexyl)-2H-indazole-5-carboxamide Form A for further development in pharmaceutical formulations was established.

Stability to prolonged storage under accelerated ageing conditions [1]: stable
Physical form by XRPD over the course of the study [2]: unchanged
SMILES: COc1cc2nn([C@H]3CC[C@H](N(C)C(C)=O)CC3)cc2cc1C(=O)Nc1cnc2cccnn12 [Form A, N-(Imidazo[1,2-b]pyridazin-3-yl)-6-methoxy-2-((1r,4r)-4-(N-methylacetamido)cyclohexyl)-2H-indazole-5-carboxamide Form A]
